# Measured values taken from patent US20120115827A1, “3-AMINOBENZAMIDE COMPOUNDS AND VANILLOID RECEPTOR SUBTYPE 1 (VR1) INHIBITORS” (Japan Tobacco Inc., priority 2004, published 2012).
# Where a name gives a salt, the structure may show the parent alone.
# Target: T1, human VR1 (Homo sapiens, UniProt Q8NER1)
# T1 construct: expressed in transfected cells
# Test: Inhibition of Ca2+ entry in cells caused by proton (VR1 agonist)
# Format: cell-based
# Settings: Rat glioma (C6BU1) cells stably expressing human VR1; proton stimulation to pH 5.5; Fura 2-AM fluorescence; read-out: In vitro IC50
# Method: The assay for evaluation of VR1 inhibition by the inventive compounds will be described below. The assay was intended to evaluate in vitro inhibition of Ca^2+ entry in cells caused by proton, one of the VR1 agonists.
# Rat glioma (C6BU1) cells stably expressing human VR1 were suspended in 20 mM MES buffer (at pH 6.8, contg. 20 mM 2-morpholinoethanesulfonate (referred to as MES hereinafter), 115 mM NaCl, 5 mM KCl, 1 mM MgCl2 and 14 mM D-glucose) to make a cell density of 1×10^6 cells/mL. A fluorescent dye, Fura 2-AM solution (Dojindo Corporate, Cat. No. 343-05401) was added to the suspension to make a 5 μM concentration thereof. Further, Pluronic F-127 (Wako Pure Chemical Industries, Ltd., Cat. No. P6866) was added to make a 0.1% content thereof. Then, the suspension was incubated at 37° C. for 30 min. The cells were harvested and washed three times with 20 mM MES buffer. The cells were suspended again to make a cell density of 5×10^5 cells/mL. A 500-μL portion of the suspension was taken with a cuvette (MC MEDICAL, INC., Cat. No. SSR3121), to which […] MES buffer containing 250 mM CaCl2 was added to incorporate Ca^2+ into the cells. At the same time, 5 μL of a test compound solution (in a range of 100 μM to 10 nM in DMSO) was also added to provide a final concentration thereof in a range of 1 μM to 0.1 nM. Alternatively, 5 μl of DMSO was added as control to provide a final concentration of 1% DMSO. The suspension was set in an intracellular ionometer (CAF-110; JASCO) 10 min after those additions. The cells were stimulated with protons by addition of 60 μL of 20 mM MES buffer at pH 1.1 to the suspension to set its pH at 5.5. The activity of the test compound was determined as a difference between the minimum of fluorescence intensity before agonist stimulation and its maximum after the stimulation. The value of IC50 was derived from percentage of inhibition by the test compound compared with the control.
# T1 sequence (Q8NER1 whole entry): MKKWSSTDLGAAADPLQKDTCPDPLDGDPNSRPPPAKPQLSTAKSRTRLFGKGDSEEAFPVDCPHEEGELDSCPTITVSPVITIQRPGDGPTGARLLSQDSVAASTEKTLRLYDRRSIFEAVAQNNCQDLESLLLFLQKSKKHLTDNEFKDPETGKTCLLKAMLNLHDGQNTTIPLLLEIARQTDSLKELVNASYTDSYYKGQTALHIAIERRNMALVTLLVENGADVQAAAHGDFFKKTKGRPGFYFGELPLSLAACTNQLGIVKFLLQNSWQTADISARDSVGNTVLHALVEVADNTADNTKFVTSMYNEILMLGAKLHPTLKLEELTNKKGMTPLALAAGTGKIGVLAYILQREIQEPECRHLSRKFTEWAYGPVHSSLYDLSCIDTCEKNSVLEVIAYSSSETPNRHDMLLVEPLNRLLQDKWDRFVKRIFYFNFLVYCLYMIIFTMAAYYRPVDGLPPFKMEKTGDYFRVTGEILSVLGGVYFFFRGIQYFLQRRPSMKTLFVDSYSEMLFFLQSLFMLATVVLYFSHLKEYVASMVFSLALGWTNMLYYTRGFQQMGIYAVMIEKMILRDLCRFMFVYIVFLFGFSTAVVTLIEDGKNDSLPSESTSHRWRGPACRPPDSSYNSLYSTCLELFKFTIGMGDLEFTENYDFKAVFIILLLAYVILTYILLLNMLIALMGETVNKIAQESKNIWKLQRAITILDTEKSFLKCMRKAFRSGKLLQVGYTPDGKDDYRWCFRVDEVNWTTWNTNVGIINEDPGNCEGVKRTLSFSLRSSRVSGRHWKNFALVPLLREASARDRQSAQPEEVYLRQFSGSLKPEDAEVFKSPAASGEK
row,SMILES,IC50
1,"CN(c1cccc(C(=O)Nc2ccc(C(C)(C)C)cc2)c1)c1ncccc1Cl [Example 1, N-(4-tert-butylphenyl)-3-[N-(3-chloropyridin-2-yl)-N-methyl-amino]benzamide, hydrochloride salt]",≤ 100 nM
2,"CN(c1cccc(C(=O)Nc2ccc(C(C)(C)C)cc2)c1)c1ccccn1 [Example 2, N-(4-tert-butylphenyl)-3-[N-(pyridin-2-yl)-N-methyl-amino]benzamide, hydrochloride salt]",100 to 1000 nM
3,"CCN(c1cccc(C(=O)Nc2ccc(C(C)(C)C)cc2)c1)c1ncccc1Cl [Example 3, N-(4-tert-butylphenyl)-3-[N-(3-chloropyridin-2-yl)-N-ethyl-amino]benzamide]",≤ 100 nM
4,"COc1ccc(C(=O)Nc2ccc(C(C)(C)C)cc2)cc1N(C)c1ncccc1Cl [Example 4, N-(4-tert-butylphenyl)-3-[N-(3-chloropyridin-2-yl)-N-methyl]amino-4-methoxybenzamide]",≤ 100 nM
5,"CN(c1cc(C(=O)Nc2ccc(C(C)(C)C)cc2)ccc1Oc1ccccc1)c1ncccc1Cl [Example 5, N-(4-tert-butylphenyl)-3-[N-(3-chloropyridin-2-yl)-N-methyl]amino-4-phenoxybenzamide]",≤ 100 nM
6,"Cc1c(C(=O)Nc2ccc(C(C)(C)C)cc2)cccc1N(C)c1ncccc1Cl [Example 6, N-(4-tert-butylphenyl)-3-[N-(3-chloropyridin-2-yl)-N-methyl-amino]-2-methylbenzamide]",≤ 100 nM
7,"Cc1ccc(C(=O)Nc2ccc(C(C)(C)C)cc2)cc1N(C)c1ncccc1Cl [Example 7, N-(4-tert-butylphenyl)-3-[N-(3-chloropyridin-2-yl)-N-methyl-amino]-4-methylbenzamide]",≤ 100 nM
8,"CN(c1cc(C(=O)Nc2ccc(C(C)(C)C)cc2)ccc1-c1ccccc1)c1ncccc1Cl [Example 8, N-(4-tert-butylphenyl)-3-[N-(3-chloropyridin-2-yl)-N-methyl-amino]-4-phenylbenzamide]",≤ 100 nM
9,"CN(c1cc(C(=O)Nc2ccc(C(C)(C)C)cc2)ccc1F)c1ncccc1Cl [Example 9, N-(4-tert-butylphenyl)-3-[N-(3-chloropyridin-2-yl)-N-methyl-amino]-4-fluorobenzamide]",≤ 100 nM
10,"CCN(c1cc(C(=O)Nc2ccc(C(C)(C)C)cc2)ccc1OC)c1ncccc1Cl [Example 10, N-(4-tert-butylphenyl)-3-[N-(3-chloropyridin-2-yl)-N-ethyl]amino-4-methoxybenzamide]",≤ 100 nM
11,"COc1ccc(C(=O)Nc2ccc(C(C)(C)C)cc2)cc1N(c1ncccc1Cl)C(C)C [Example 11, N-(4-tert-butylphenyl)-3-[N-(3-chloropyridin-2-yl)-N-isopropyl]amino-4-methoxybenzamide]",≤ 100 nM
12,"CN(c1cc(C(=O)Nc2ccc(C(C)(C)C)cc2)ccc1Cl)c1ncccc1Cl [Example 12, N-(4-tert-butylphenyl)-4-chloro-3-[N-(3-chloropyridin-2-yl)-N-methyl-amino]benzamide]",≤ 100 nM
13,"CN(c1ccccn1)c1cc(C(=O)Nc2ccc(C(C)(C)C)cc2)ccc1Cl [Example 13, N-(4-tert-butylphenyl)-4-chloro-3-[N-(pyridin-2-yl)-N-methyl-amino]benzamide]",100 to 1000 nM
14,"COCOc1ccc(C(=O)Nc2ccc(C(C)(C)C)cc2)cc1N(C)c1ncccc1Cl [Example 14, N-(4-tert-butylphenyl)-3-[N-(3-chloropyridin-2-yl)-N-methyl-amino]-4-methoxymethyloxybenzamide]",≤ 100 nM
15,"CN(c1cc(C(=O)Nc2ccc(C(C)(C)C)cc2)ccc1O)c1ncccc1Cl [Example 15, N-(4-tert-butylphenyl)-3-[N-(3-chloropyridin-2-yl)-N-methyl-amino]-4-hydroxybenzamide]",≤ 100 nM
16,"CC(C)Oc1ccc(C(=O)Nc2ccc(C(C)(C)C)cc2)cc1N(C)c1ncccc1Cl [Example 16, N-(4-tert-butylphenyl)-3-[N-(3-chloropyridin-2-yl)-N-methyl-amino]-4-isopropoxybenzamide]",≤ 100 nM
17,"CN1c2cc(C(=O)Nc3ccc(C(C)(C)C)cc3)ccc2Oc2cccnc21 [Example 17, N-(4-tert-butylphenyl)-10-methyl-10H-benzo[b]pyrido[2,3-e][1,4]oxazine-8-carboxamide]",≤ 100 nM

row,SMILES,IC50
1,"CN(c1cc(C(=O)Nc2ccc(C(C)(C)C)cc2)ccc1OCCO)c1ncccc1Cl [Example 18, N-(4-tert-butylphenyl)-3-[N-(3-chloropyridin-2-yl)-N-methyl-amino]-4-(2-hydroxyethyl)oxybenzamide]",≤ 100 nM
2,"CN(c1cc(C(=O)Nc2ccc(C(C)(C)C)cc2)ccc1OCC(N)=O)c1ncccc1Cl [Example 20, N-(4-tert-butylphenyl)-4-carbamoylmethyloxy-3-[N-(3-chloropyridin-2-yl)-N-methyl-amino]benzamide]",≤ 100 nM
3,"CNC(=O)COc1ccc(C(=O)Nc2ccc(C(C)(C)C)cc2)cc1N(C)c1ncccc1Cl [Example 21, N-(4-tert-butylphenyl)-3-[N-(3-chloropyridin-2-yl)-N-methyl-amino]-4-(N-methylcarbamoylmethyl)oxybenzamide]",≤ 100 nM
4,"CN(C)C(=O)COc1ccc(C(=O)Nc2ccc(C(C)(C)C)cc2)cc1N(C)c1ncccc1Cl [Example 22, N-(4-tert-butylphenyl)-3-[N-(3-chloropyridin-2-yl)-N-methyl-amino]-4-(N,N-dimethylcarbamoylmethyl)oxybenzamide]",100 to 1000 nM
5,"CN(c1cc(Cl)cc(C(=O)Nc2ccc(C(C)(C)C)cc2)c1)c1ncccc1Cl [Example 23, N-(4-tert-butylphenyl)-5-chloro-3-[N-(3-chloropyridin-2-yl)-N-methyl]aminobenzamide]",≤ 100 nM
6,"CN(c1ccc(Cl)c(C(=O)Nc2ccc(C(C)(C)C)cc2)c1)c1ncccc1Cl [Example 24, N-(4-tert-butylphenyl)-2-chloro-5-[N-(3-chloropyridin-2-yl)-N-methyl]aminobenzamide]",100 to 1000 nM
7,"CN(c1cccc(C(=O)Nc2ccc(C(C)(C)C)cc2)c1O)c1ncccc1Cl [Example 25, N-(4-tert-butylphenyl)-3-[N-(3-chloropyridin-2-yl)-N-methyl]amino-2-hydroxybenzamide]",100 to 1000 nM
8,"COc1c(C(=O)Nc2ccc(C(C)(C)C)cc2)cccc1N(C)c1ncccc1Cl [Example 26, N-(4-tert-butylphenyl)-3-[N-(3-chloropyridin-2-yl)-N-methyl]amino-2-methoxybenzamide]",≤ 100 nM
9,"CN(c1cccc(C(=O)Nc2ccc(C(C)(C)C)cc2)c1OCCO)c1ncccc1Cl [Example 27, N-(4-tert-butylphenyl)-3-[N-(3-chloropyridin-2-yl)-N-methyl-amino]-2-(2-hydroxyethyl)oxybenzamide]",≤ 100 nM
10,"COc1ccc(C(=O)Nc2ccc(C(C)(C)C)cc2)cc1N(CCO)c1ncccc1Cl [Example 28, N-(4-tert-butylphenyl)-3-[N-(3-chloropyridin-2-yl)-N-(2-hydroxyethyl)]amino-4-methoxybenzamide]",≤ 100 nM
11,"COCCN(c1cc(C(=O)Nc2ccc(C(C)(C)C)cc2)ccc1Cl)c1ncccc1Cl [Example 29, N-(4-tert-butylphenyl)-4-chloro-3-[N-(3-chloropyridin-2-yl)-N-(2-methoxyethyl)amino]benzamide]",≤ 100 nM
12,"CC(C)(C)c1ccc(NC(=O)c2ccc(Cl)c(N(CCO)c3ncccc3Cl)c2)cc1 [Example 30, N-(4-tert-butylphenyl)-4-chloro-3-[N-(3-chloropyridin-2-yl)-N-(2-hydroxyethyl)amino]benzamide]",≤ 100 nM
13,"O=C(Nc1ccc(C(F)(F)F)cc1)c1ccc(Cl)c(N(CCO)c2ncccc2Cl)c1 [Example 31, 4-chloro-3-[N-(3-chloropyridin-2-yl)-N-(2-hydroxyethyl)amino]-N-(4-trifluoromethylphenyl)-benzamide, hydrochloride salt]",≤ 100 nM
14,"O=C(Nc1ccc(OC(F)(F)F)cc1)c1ccc(Cl)c(N(CCO)c2ncccc2Cl)c1 [Example 32, 4-chloro-3-[N-(3-chloropyridin-2-yl)-N-(2-hydroxyethyl)amino]-N-(4-trifluoromethoxyphenyl)benzamide, hydrochloride salt]",≤ 100 nM
15,"CN(c1cccc(C(=O)Nc2ccc(C(C)(C)C)cc2)c1)c1ccccc1Cl [Example 33, N-(4-tert-butylphenyl)-3-[N-(2-chlorophenyl)-N-methyl-amino]benzamide]",≤ 100 nM
16,"CC(C)COc1ccc(NC(=O)c2ccc(Cl)c(N(CCO)c3ncccc3Cl)c2)cc1 [Example 35, 4-chloro-3-[N-(3-chloropyridin-2-yl)-N-(2-hydroxyethyl)amino]-N-(4-isobutyloxyphenyl)benzamide, hydrochloride salt]",≤ 100 nM
